One series deals with T1, bovine thymus VDR (Bos taurus, UniProt Q28037).
T1 construct: commercially available kit of bovine thymus VDR; purchased Incstar (Stillwater, Minn.); host or cells: bovine thymus
T1 sequence (Q28037 1-426): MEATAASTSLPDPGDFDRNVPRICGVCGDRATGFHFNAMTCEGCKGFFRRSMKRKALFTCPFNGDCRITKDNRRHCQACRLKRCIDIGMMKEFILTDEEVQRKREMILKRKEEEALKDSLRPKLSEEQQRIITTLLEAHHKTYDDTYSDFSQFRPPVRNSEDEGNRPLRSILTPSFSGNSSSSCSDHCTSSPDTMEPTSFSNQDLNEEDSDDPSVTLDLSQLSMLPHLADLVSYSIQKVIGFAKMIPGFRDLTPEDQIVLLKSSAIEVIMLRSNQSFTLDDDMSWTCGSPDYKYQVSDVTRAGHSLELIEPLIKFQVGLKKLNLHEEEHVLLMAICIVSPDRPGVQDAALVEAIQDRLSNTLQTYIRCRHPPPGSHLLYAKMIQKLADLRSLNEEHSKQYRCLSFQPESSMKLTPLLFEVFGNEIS
The experiment in a line: Radioreceptor assay with bovine thymus VDR (Incstar), displacement of 3H-1α,25-(OH)2 D3. The class given is binding. From the text:
Purified 1α,24(S)-(OH)2 D2 was quantitated by photodiode array spectrophotometry and assayed in the radioreceptor assay.
The purified 1α,24(R)-(OH)2 D2 and 1α,24(S)-(OH)2 D2 epimers were quantitated by ultraviolet spectroscopy. The concentration of 1α,24(R)-(OH)2 D2 required to produce the same displacement of ^3 H-1α,25-(OH)2 D3 tracer from the receptor was 20 to 30 times that required for 1α,24(S)-(OH)2 D2, as shown in FIG. 4.
Background: Loss of bound radioactivity is the signal in a displacement assay; it reports binding, not function.

Another series relates to HL-60 promyelocytes. The experiment in a line: HL-60 cell differentiation assay. The class given is cell-based. The note with it: dose-response study. As to the method: A dose-response study is conducted with 1α,24(S)-(OH)2 D2 in the HL-60 cell differentiation assay as described by DeLuca and Ostrom (DeLuca, H. F. and Ostrem, V. K., Prog. Clin. Biol. Res., vol. 259, pp. 41-55 (1988)). In this study, 1α,25-(OH)2 D3 is used as a positive control and appropriate solvents are used as negative controls. The following variables are evaluated: nonspecific acid esterase activity, nitroblue tetrazolium (NBT) reduction, and thymidine incorporation.

In the next series the test system is Human keratinocytes. The experiment in a line: Epidermal cell differentiation and proliferation testing. The class given is cell-based. Particulars: 0.05 to 5 μg/ml. The method, then:
Human keratinocytes are cultured according to known modifications of the system originally described by Rheinwald and Green (Cell, vol. 6, p. 331 (1975)). The 1α,24(S)-dihydroxy vitamin D2, dissolved in ethanol, is added to cells to yield a variety of concentrations between 0.05 and 5 μg/ml with the ethanol concentration not to exceed 0.5% v/v. Control cultures are supplemented with ethanol at a final concentration of 0.5% v/v.
Differentiation and proliferation of epidermal cells in culture is examined by:
1. quantitation of cornified envelopes;
2. quantitation of cell density of cells attached to disks;
3. monitoring transglutaminase activity; or
4. monitoring DNA synthesis by incorporation of ^3 H-thymidine.

For series [1], the system named is BCA-1 or ZR-75-1 (breast) and COL-1 (colon). The experiment in a line: Antiproliferative activity in human cancer cell lines, thymidine incorporation. The class given is cell-based. The note with it: dose-response studies. The method, then: Dose-response studies are conducted with 1α,24(S)-(OH)2 D2 in a battery of human cancer cell lines. These cell lines include, but are not limited to, the following: BCA-1 or ZR-75-1 (breast) and COL-1 (colon), as described by Shieh, H. L. et al. Chem. Biol. Interact., vol. 81, pp. 35-55 (1982). In this study, appropriate solvents are used as negative controls.
(In general: Dividing cells build labelled thymidine or BrdU into new DNA.)

Series [2] in a line: Prophylaxis of postmenopausal bone loss in healthy postmenopausal women. The class given is in vivo, human. The note with it: at or above 1.0 μg/day. As to the method:
A clinical study is conducted with healthy postmenopausal women having ages between 55 and 60 years. The study involves up to 80 patients randomly divided into two treatment groups, and continues for 24 to 36 months. One treatment group receives a constant dosage of 1α,24(S)-dihydroxy vitamin D2 (u.i.d.; a dose level at or above 1.0 μg/day) and the other receives a matching placebo. The study is conducted as indicated in Example 2 above.

Series [3] can be described thus: Hypocalcemia and metabolic bone disease in chronic hemodialysis patients. The class given is in vivo, human. The note with it: greater than 3.0 μg/day, twelve months. The method, then: A twelve-month, double-blind, placebo-controlled clinical trial is conducted with thirty men and women with renal disease who are undergoing chronic hemodialysis. […] Efficacy is evaluated by pre- and post-treatment comparisons of the two patient groups with regard to (a) direct measurements of intestinal calcium absorption, (b) total body calcium retention, (c) radial and spinal bone mineral density, or (d) determinations of serum calcium. Safety is evaluated by regular monitoring of serum calcium.

Entries after “also recorded” stand apart in the source; their conditions may differ.

On to `C=C1/C(=C\C=C2/CCC[C@]3(C)[C@@H]([C@H](C)/C=C/[C@@](C)(O)C(C)C)CC[C@@H]23)C[C@@H](O)C[C@@H]1O` [1α,24(S)-(OH)2 D2, 1α,24(S)-dihydroxy Vitamin D2], for which, at bovine thymus VDR, the “Affinity for VDR relative to 1α,25-(OH)2 D3” value was “two-fold less competitive; also recorded: two-fold lower affinity”. In the series with HL-60 promyelocytes, the “Promotion of differentiation of HL-60 promyelocytes to monocytes” value was “potent activity”. In addition, in the series with Human keratinocytes, the “Cell density of attached cells versus control cultures” value was “fewer attached cells”, the “Cornified envelopes versus control cultures” value is listed as “more cornified envelopes”, the “DNA synthesis (3H-thymidine incorporation) versus control cultures” value is on record as “lower DNA synthesis” and the “Transglutaminase activity versus control cultures” value is reported as “higher transglutaminase activity”. In series [1], the “Antiproliferative activity, inhibition of thymidine incorporation” value is listed as “potent (and reversible) antiproliferative activity”. The “Losses in total body calcium, radial or spinal bone densities versus baseline” value in series [2] (24 to 36 months) is “reduced losses”. In series [2] (long-term), the Monitored safety parameters result is “confirm the safety”. In series [3], the Incidence of hypercalcemia entry is reported as “insignificant incidence of hypercalcemia”; the “Radial and spinal bone densities” value is “stable radial and spinal bone densities relative to baseline values”; the Serum calcium levels result is “normalized serum calcium levels”; the Total body calcium result is listed as “stable values for total body calcium”.

The values above are taken from US6143910A, “Methods for preparation and use of 1α, 24(S) -dihydroxy vitamin D2” (priority 1998, dated 2000).
